According to patent US4027038A, “Complement inhibitors” (priority 1976, dated 1977):

Assays:
Forssman vasculitis = assay: Forssman Vasculitis Test; conditions: In Vivo; guinea pigs; inhibition of combined index of lesion diameter, edema and hemorrhage; prior intraperitoneal injection at 200 mg/kg
Excerpt: (§1) This test measures the ability of activated human C1 to destroy fluid phase human C2 in the presence of C4 and appropriate dilutions of the test compound. An active inhibitor protects C2 from C1 and C4; (ii) Test, Code 035 (C3-C9 inhibitor). This test determines the ability of the late components of human complement (C3-C9 to lyse EAC 142 in the presence of appropriate dilutions of the test compound. An active inhibitor protects EAC 142 from lysis by human C3-C9; (ii) Test, Code 036 (C-Shunt inhibitor)-- In this test human erythrocytes rendered fragile are lysed in autologous serum via the shunt pathway activated by cobra venom factor in the presence of appropriate dilutions of the test compound. Inhibition of the shunt pathway results in failure of lysis; (iv) Forssman Vasculitis Test-- Here, the well known complement dependent lesion, Forssman vasculitis, is produced in guinea pigs by intradermal injection of rabbit anti-Forssman antiserum. The lesion is measured in terms of diameter, edema and hemorrhage and the extent to which a combined index of these is inhibited by prior intraperitoneal injection of the test compound at 200 mg/kg is then reported, unless otherwise stated; (v) Forssman Shock Test-- Lethal shock is produced in guinea pigs by an i.v. injection of anti-Forssman antiserum and the harmonic mean death time of treated guinea pigs is compared with that of simultaneous controls; (vi) Complement Level Reduction Test-- In this test, the above dosed guinea pigs, or other, are bled for serum and the complement level is determined in undiluted serum by the capillary tube method of U.S. Pat. No. 3,876,376 and compared to undosed control guinea pigs; and (vii) Cap 50 Test-- Here, appropriate amounts of the test compound are added to a pool of guinea pig serum in vitro, after which the undiluted serum capillary tube assay referred to above is run. The concentration of compound inhibiting 50% is reported.

activated human C1 = biological target: T1, activated human C1 (Homo sapiens, UniProt P09871); assay: Test, Code 026 (C1 inhibitor); type: biochemical; conditions: In Vitro; serial two-fold dilution assay, higher well number indicates higher activity
T1 sequence (P09871 438-688 limits assumed): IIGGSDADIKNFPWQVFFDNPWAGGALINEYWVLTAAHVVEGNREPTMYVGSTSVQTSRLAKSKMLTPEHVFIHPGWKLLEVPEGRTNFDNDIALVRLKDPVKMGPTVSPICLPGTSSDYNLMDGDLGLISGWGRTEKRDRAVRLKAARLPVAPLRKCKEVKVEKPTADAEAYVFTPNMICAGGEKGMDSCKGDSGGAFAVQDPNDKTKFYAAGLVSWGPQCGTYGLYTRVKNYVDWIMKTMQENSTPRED
T1 sequence (P09871 16-437 limits assumed): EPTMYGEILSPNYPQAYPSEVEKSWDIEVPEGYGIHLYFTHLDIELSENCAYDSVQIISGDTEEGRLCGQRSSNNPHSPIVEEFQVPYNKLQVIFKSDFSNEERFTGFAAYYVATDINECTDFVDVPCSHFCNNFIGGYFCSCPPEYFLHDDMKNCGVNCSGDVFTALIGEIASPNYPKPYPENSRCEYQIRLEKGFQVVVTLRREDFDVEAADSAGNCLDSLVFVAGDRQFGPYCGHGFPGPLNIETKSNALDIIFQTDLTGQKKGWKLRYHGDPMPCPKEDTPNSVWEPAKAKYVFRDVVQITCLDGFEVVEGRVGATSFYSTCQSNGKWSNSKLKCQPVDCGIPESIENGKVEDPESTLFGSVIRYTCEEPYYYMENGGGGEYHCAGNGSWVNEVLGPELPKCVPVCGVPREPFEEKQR
Excerpt: as §1

shunt pathway = assay: Test, Code 036 (C-Shunt inhibitor), lysis of fragile human erythrocytes in autologous serum, cobra venom factor; type: biochemical; conditions: In Vitro; serial two-fold dilution assay, higher well number indicates higher activity
Excerpt: as §1

[1] = system: complement level in undiluted serum; assay: Complement Level Reduction Test; conditions: In Vivo; serum of dosed guinea pigs compared to undosed controls, capillary tube method
Excerpt: as §1

[2] = system: late components of human complement (C3-C9); assay: Test, Code 035 (C3-C9 inhibitor), lysis of EAC 142; type: biochemical; conditions: In Vitro; serial two-fold dilution assay, higher well number indicates higher activity
Excerpt: as §1

SMILES	Forssman (Forssman vasculitis)	026 (C1 inhibitor), activity in wells (activated human C1)	036 (C-Shunt inhibitor), activity in wells (shunt pathway)	% Reduction Complement [1]	035 (C3-C9 inhibitor), activity in wells [2]
O=C(Nc1cccc(C(=O)Nc2ccc3cc(S(=O)(=O)[O-])cc(S(=O)(=O)[O-])c3c2)c1)Nc1cccc(C(=O)Nc2ccc3cc(S(=O)(=O)[O-])cc(S(=O)(=O)[O-])c3c2)c1.[Na+].[Na+].[Na+].[Na+] [7,7'-[Ureylenebis(m-phenylenecarbonylimino)]di-1,3-naphthalenedisulfonic acid tetrasodium salt]	8	3 wells	1 wells	-33%	1 wells
O=C(Nc1ccc(C(=O)Nc2ccc(S(=O)(=O)[O-])c3cccc(S(=O)(=O)[O-])c23)cc1)Nc1ccc(C(=O)Nc2ccc(S(=O)(=O)[O-])c3cccc(S(=O)(=O)[O-])c23)cc1.[Na+].[Na+].[Na+].[Na+] [4,4'-[Ureylenebis(p-phenylenecarbonylimino)]di-1,5-naphthalenedisulfonic acid tetrasodium salt]	12	NEG	NEG	+58%	NEG
O=C(Nc1cccc(C(=O)Nc2cc(S(=O)(=O)[O-])cc3cc(S(=O)(=O)[O-])ccc23)c1)Nc1cccc(C(=O)Nc2cc(S(=O)(=O)[O-])cc3cc(S(=O)(=O)[O-])ccc23)c1.[Na+].[Na+].[Na+].[Na+] [4,4'-[Ureylenebis(m-phenylenecarbonylimino)]di-2,7-naphthalenedisulfonic acid tetrasodium salt]	0	3 wells	NEG	+4%	NEG
O=C(Nc1cccc(C(=O)Nc2ccc(S(=O)(=O)[O-])c3cccc(S(=O)(=O)[O-])c23)c1)Nc1cccc(C(=O)Nc2ccc(S(=O)(=O)[O-])c3cccc(S(=O)(=O)[O-])c23)c1.[Na+].[Na+].[Na+].[Na+] [4,4'-[Ureylenebis(m-phenylenecarbonylimino)]di-1,5-naphthalenedisulfonic acid tetrasodium salt]	10	2 wells	NEG	-18%	NEG
O=C(Nc1cccc(C(=O)Nc2ccc3c(S(=O)(=O)[O-])cccc3c2S(=O)(=O)[O-])c1)Nc1cccc(C(=O)Nc2ccc3c(S(=O)(=O)[O-])cccc3c2S(=O)(=O)[O-])c1.[Na+].[Na+].[Na+].[Na+] [2,2'-[Ureylenebis(m-phenylenecarbonylimino)]di-1,5-naphthalenedisulfonic acid tetrasodium salt]	10	NEG	1 wells	-18%	1 wells
